Data on one compound can be found in publication PMC7002685, “Inhibition of vascular calcification by inositol phosphates derivatized with ethylene glycol oligomers” (Nature Communications, 2020).

In series [1] the target is T1, Monoamine Oxidase MAO-B (Homo sapiens, UniProt P27338).
T1 construct: purchased Eurofins Panlabs Discovery Services Taiwan, Ltd
As to the kind of experiment: Off-target 140120. The series is classed as biochemical. Here is the method:
(§1) The potential off-target activity of 10 µM (OEG2)2-IP4 was assessed against a panel of 87 enzymes, receptors, or ion channels that are used in standard safety pharmacology screens.
(§2) 3.2. Off-target screening assay
(§3) The experiments were conducted by a contract research organization (Eurofins Panlabs Discovery Services Taiwan, Ltd.) and details on the respective assays can be retrieved via the catalog number provided in Supplementary Table 11 from the company’s webpage
(§4) (https://www.eurofinsdiscoveryservices.com/). […]
(§5) At sacrifice the left tibia of animals of the rat model with dietary adenine/high-phosphate-induced uremia and VC was collected, fixed with 70% v/v EtOH and embedded in methyl methacrylate. The trabecular bone compartment is known to be the most metabolic active i.e. actively re-structured bone compartment in CKD. Therefore, histomorphometric and micro-computed tomography (µCT) analysis of bone was performed on the trabecular compartment. Tibial sections were Goldner-stained for histomorphometric analysis of the proximal metaphysis using the AxioVision Release 4.5 software, as […]
(§6) described previously5. […]

Series [2] in a line: Serum calcification propensity assay after 4.5 h incubation in enzymatically active human serum. Particulars: compound at c350 concentration, 37 °C; individual donors, Fig. 2e.
Series [3] relates to Calcium Channel L-Type, Benzothiazepine. As to the kind of experiment: Off-target 214510. In kind it is binding, Rat. Particulars: 10 µM. As for the experimental part:
as §1, §2, §3, §4, §5, §6

The nature of series [4]: Macrophage viability (MTS) with CPP2 and compounds. In kind it is cell-based, human. Particulars: human, THP-1-derived macrophages, read-out: Macrophage viability (MTS), % of medium control. As for the experimental part: (§7) Macrophage accumulation and inflammation coincide with the initial phase of calcification. To this end, VSMCs and THP-1-derived macrophages were exposed to CPP2-supplemented medium. CPP2 prepared from human serum as described previously[61] (Supplementary Figs. 6 and 7), induced a pronounced VSMC monolayer calcification after 48 h, which was decreased by (OEG2)2-IP4 in a dose-dependent fashion, and the effect became significant at 10 µM (Fig. 3e). […] Both H2O2 (proxy for oxidative stress) and tumor necrosis factor-alpha (TNF-α) (proxy for inflammatory response) levels were assayed in the VSMC culture supernatants subsequent to CPP2 treatment with and without compounds[30]. However, no increase in H2O2 nor TNF-α compared to control could be detected in either assay. For the CPP-induced VSMC calcification assay (Fig. 3e) a roughly 10-fold higher concentration of (OEG2)2-IP4 was necessary to achieve similar activity as in the CaP-induced VSMC calcification assay (Fig. 3b). […] In the CaP assay, low inhibitor concentration may be sufficient to inhibit crystal nucleation, whereas for the CPP assay higher inhibitor concentrations may be needed to achieve sufficient particle stabilization by chemisorption of inhibitor onto CPPs. Similar results have been reported for hydrogen sulfide in the context of VC[62],[64]. […] An increase in the TNFα levels in the cell culture supernatants was not observed for (OEG2)2-IP4 with (Fig. 3h) and without (Supplementary Fig. 10) combined CPP2 treatment.
(§8) THP-1 cells were plated at a density of 200,000 cells/well in a 24-well plate, differentiated as stated above, and subsequently treated with or without CPP2 (50 μg Ca/mL) in complete medium with or without test compounds (3, 10, 30, 100 μM) for 24 h at 37 °C, 5% CO2.
(§9) Cell viability was assessed using the MTS assay (CellTiter 96® Aqueous One Solution Cell Proliferation Assay, G3580; Promega, Madison, WI, USA) according to the manufacturer’s instructions. Assays using combined treatment of CPPs or CaP and test compounds were performed in 24-well plates using 20,000 cells per well and assays using test compounds only were performed in a 96-well plate format with a seeding density of 10,000 (VSMC) or 50,000 (THP-1) cells per well, respectively. For controls, cells were treated with respective complete medium only and results were calculated as % of control.

Series [5] relates to THP-1-derived macrophages. Kind of series: Macrophage viability (MTS) with CPP2 and compounds. In kind it is cell-based, human. As for the experimental part:
as §7, §8, §9

The target of series [6] is T2, Endothelin ETA (Homo sapiens, UniProt P25101).
T2 construct: purchased Eurofins Panlabs Discovery Services Taiwan, Ltd
T2 sequence (P25101 21-427): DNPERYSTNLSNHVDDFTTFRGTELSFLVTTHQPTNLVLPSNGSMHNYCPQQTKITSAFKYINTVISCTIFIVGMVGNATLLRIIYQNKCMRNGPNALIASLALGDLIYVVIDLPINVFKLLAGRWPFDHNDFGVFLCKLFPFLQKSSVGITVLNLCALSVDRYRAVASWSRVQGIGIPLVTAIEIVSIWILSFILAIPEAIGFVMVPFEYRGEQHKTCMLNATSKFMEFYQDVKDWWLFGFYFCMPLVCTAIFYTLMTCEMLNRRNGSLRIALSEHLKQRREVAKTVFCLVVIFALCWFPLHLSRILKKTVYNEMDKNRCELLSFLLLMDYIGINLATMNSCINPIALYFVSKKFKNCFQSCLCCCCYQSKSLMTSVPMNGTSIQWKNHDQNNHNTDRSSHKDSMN
Kind of series: Off-target 224010. In kind it is binding. As for the experimental part:
as §1, §2, §3, §4, §5, §6

Series [7] concerns CPPs. Kind of series: DLS of CPP hydrodynamic diameter in human serum. Particulars: added to CPP1s at a final concentration of 30 µM. Here is the method:
To confirm the screening assay data, the hydrodynamic diameter of the CPPs was measured by dynamic light scattering (DLS).
Human serum studies were performed under sterile conditions at 37 °C as described previously. […] For serum background measurements, saline, human serum, and 100 mM HBS (pH 7.4 (RT)) were combined in a volume ratio of 2:8:10. […] The mixtures were incubated with continual slow mixing on a rotator (240 rotations/min, IKA KS 130 Basics Orbital Shaker) at 37 °C. After 1, 3, and 5 h of incubation, 500 µL aliquots were drawn under sterile conditions to prevent microorganism growth contamination and subjected to DLS analysis at 37 °C. For each experiment, three replicates were produced and a single measurement per sample and time point was performed.

Series [8] is described as follows: VSMC viability (MTS) in CPP2-supplemented medium. The series is classed as cell-based, human. Particulars: human, read-out: VSMC viability (MTS), % of medium control. As for the experimental part:
as §7, §9

Series [9] has as its system primary human VSMCs. Kind of series: VSMC viability (MTS) in CPP2-supplemented medium. The series is classed as cell-based. As for the experimental part:
as §7, §9

Series [10] has as its system Protein Serine/Threonine Kinase, PKC, Non-selective. Kind of series: Off-target 178010. In kind it is biochemical, Rat. Particulars: 10 µM. Here is the method:
as §1, §2, §3, §4, §5, §6

Broadly, the inhibition is the change of the read-out against control, counted positive when it falls. Read a high inhibition as a strong effect. A word on the % Inhibition: it is the relative decrease from the control value, in per cent. A word on the viability: it is a read-out of living cells in per cent, often relative to untreated cells.

Several values for one entry are separate records, joined by “and”; a condition that tells them apart may be missing. Equal values may be shown once.

T1 sequence (P27338 whole entry): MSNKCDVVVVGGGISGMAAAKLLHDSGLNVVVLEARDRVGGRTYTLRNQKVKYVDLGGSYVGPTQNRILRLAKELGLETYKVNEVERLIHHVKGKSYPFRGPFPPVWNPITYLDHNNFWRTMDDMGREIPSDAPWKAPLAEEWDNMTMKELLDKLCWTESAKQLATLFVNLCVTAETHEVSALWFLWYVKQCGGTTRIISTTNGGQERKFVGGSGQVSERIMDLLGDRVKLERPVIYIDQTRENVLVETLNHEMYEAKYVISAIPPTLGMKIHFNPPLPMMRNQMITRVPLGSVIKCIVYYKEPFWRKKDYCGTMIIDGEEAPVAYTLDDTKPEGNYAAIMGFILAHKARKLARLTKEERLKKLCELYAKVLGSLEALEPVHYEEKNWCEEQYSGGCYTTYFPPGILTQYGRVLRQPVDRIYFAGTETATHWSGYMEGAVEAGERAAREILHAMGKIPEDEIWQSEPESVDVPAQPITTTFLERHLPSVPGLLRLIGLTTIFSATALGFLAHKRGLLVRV

Take `COCCOCCO[C@@H]1[C@@H](OP(=O)(O)O)[C@H](OCCOCCOC)[C@@H](OP(=O)(O)O)[C@@H](OP(=O)(O)O)[C@H]1OP(=O)(O)O` [(OEG2)2-IP4, 4,6-Di-O-(methoxy-diethyleneglycol)-myo-inositol-1,2,3,5-tetrakis(phosphate)]: the values for the inhibition at 10 µM in [1] and in series [6] were 0% and 8%, respectively. Moreover, in series [2], the “ΔT50 after 4.5 h vs 0 h incubation in enzymatically active human serum” value is -10 min and 0 min and 51 min and 10 min. For the same compound, the “% Inhibition” value in series [3] is reported as -7%; in series [10], -18%. Moreover, the viability at 24 h, 3 µM in series [4] (3 µM + CPP2, replicates Fig. 3i) came to 100%. Besides, the viability at 24 h, 10 µM in series [4] (10 µM + CPP2) turned out to be 97.5%. In addition, the viability at 24 h, 30 µM in series [4] (30 µM + CPP2) came out at 96.5%. Further, the viability at 24 h, 100 µM in series [4] (100 µM + CPP2) is 99.1%. Besides, the “Macrophage viability (MTS), % of medium control” value was 98.1% and 100.05% in series [5] (3 µM + CPP2, replicates Fig. 3i, 3 µM); 99.92% and 100.59% in [5] (10 µM + CPP2, 10 µM); 96.73% and 98.39% in [5] (30 µM + CPP2, 30 µM); 94.54% and 99.09% in series [5] (100 µM + CPP2, 100 µM). Further, in series [7], the “CPP particle growth (DLS)” value is “stabilized particle growth”. Further, in [8] (3 µM with CPP2), the viability at 48 h, 3 µM amounted to 102%. In series [8] (10 µM with CPP2), the viability at 48 h, 10 µM came out at 104%. In addition, the viability at 48 h, 30 µM in series [8] (30 µM with CPP2) was determined as 101%. In series [8] (100 µM with CPP2), the viability at 48 h, 100 µM turned out to be 93.7%. The “VSMC viability in CPP2 setup” value in series [9] is “did not reduce VSMC viability”. For the same compound, the “VSMC viability (MTS), % of medium control” value in [9] (1 µM with CPP2, replicates Fig. 3f) is 111.835% and 81.6116% and 105.448%; in series [9] (3 µM with CPP2), 87.2434% and 103.748%; in [9] (10 µM with CPP2) it was 94.1761% and 106.452%; in series [9] (30 µM with CPP2), 95.6307% and 101.925%; in series [9] (100 µM with CPP2), 103.228% and 101.178%.
